Measured values as given in US20230364047A1, “USE OF ESTER GROUP-[…] PR[…] IN PREPARATION OF MEDICINE FOR TREATING DRY EYE SYNDROME” (CHANGCHUN GENESCIENCE PHARMACEUTICAL CO., LTD., priority 2020, published 2023).
Marks after values point to notes of the source that are not given here.

Legend:
[1] = tested on: dry eye syndrome caused by castration of male rabbits; assay: Histopathology examination of harderian gland and meibomian gland in castrated male rabbits; assay type: in vivo, Japanese big-ear white rabbit; settings: HE sections, in words
Description: (§1) 5, 2014-Oct. […] Body weight was measured on the first day and the last day of the quarantine period. • 7 Grouping and Identifying Method for Experimental Animals • 7.1 Identifying method for animals • 7.1.1 Quarantine period: fed in separate cages, tag hung on each cage, and no marking of animals. • 7.1.2 Administration observation period: marked by staining with saturated picric acid solution, and 5 rabbits in each group were marked in the following ways, respectively: head, back, tail, head and back, and white. • 7.2 Grouping of experimental animals: after the quarantine period was finished, 5 rabbits were randomly selected according to the body weight and used in the normal control group, and the rest rabbits were used in the modeling group. […] 5, 2014-Aug. 11, 2014 • 9.3 Date of grouping: Aug. 12, 2014, Sep. 15, 2014 • 9.4 Date of modeling: Aug. 12, 2014 • 9.5 Administration time: Sep. 15, 2014 • 9.6 Animal sacrifice time: Oct. 27, 2014 • 9.2 Duration of administration: two consecutive weeks from Sep. 15, 2014 to Sep. […]

[2] = tested on: dry eye syndrome caused by castration of male rabbits; assay: Corneal fluorescence staining (PI) score in castrated male rabbits; assay type: in vivo, Japanese big-ear white rabbit; settings: score 0-4, x ± s, n=5
Description: as §1

[3] = Body weight and general state of castrated male rabbits during and after topical eye administration; settings: x ± s, n=5
Description: (§2) 5, 2014-Oct. […] Body weight was measured on the first day and the last day of the quarantine period. • 7 Grouping and Identifying Method for Experimental Animals • 7.1 Identifying method for animals • 7.1.1 Quarantine period: fed in separate cages, tag hung on each cage, and no marking of animals. • 7.1.2 Administration observation period: marked by staining with saturated picric acid solution, and 5 rabbits in each group were marked in the following ways, respectively: head, back, tail, head and back, and white. • 7.2 Grouping of experimental animals: after the quarantine period was finished, 5 rabbits were randomly selected according to the body weight and used in the normal control group, and the rest rabbits were used in the modeling group. […] 5, 2014-Aug. 11, 2014 • 9.3 Date of grouping: Aug. 12, 2014, Sep. 15, 2014 • 9.4 Date of modeling: Aug. 12, 2014 • 9.5 Administration time: Sep. 15, 2014 • 9.6 Animal sacrifice time: Oct. 27, 2014 • 9.2 Duration of administration: two consecutive weeks from Sep. 15, 2014 to Sep. […] An aseptic towel was spread out, testicles at two sides were sequentially squeezed into the scrotum from abdominal cavity and clenched to prevent them from sliding, a small opening was cut on the scrotum with a sterilized blade, the testicles were squeezed out by force, the spermatic vein and vas deferens were ligated, the testicles and epididymis were cut out, the scrotum skin was sutured, and iodine tincture was coated locally to prevent infection. • 11.2 Administration method: administration was started on day 35 after the operation, at a prescribed dose for 14 consecutive days. • 11.3 Detection indexes: for each group, basal tear secretion (Schirmer I test), corneal fluorescence staining (PI) and tear film break-up time (BUT) were detected before the modeling and on days 0, 7, and 14 after the administration by performing surface anesthesia. • 11.3.1 Basal tear secretion (Schirmer I test): the 5 mm forepart of a qualitative filter paper (35 mm×6 mm) was reversely folded and placed in the lower eyelid bitamporal conjunctival sac, and the tear infiltration length (including the reversely-folded segment) of the test paper after 5 min was detected and recorded. • 11.3.2 Scoring criteria for corneal fluorescence staining (PI): 1% fluorescein sodium was applied to both eyes of a rabbit without subsequent rinsing, and a slit-lamp microscope was used for observation.

[4] = tested on: dry eye syndrome caused by castration of male rabbits; assay: Basal tear secretion (Schirmer I test) in castrated male rabbits; assay type: in vivo, Japanese big-ear white rabbit
Description: as §2

[5] = topical to the eyes for 14 days
[6] = castrated male rabbits, topical to the eyes, Schirmer I 5 min, x ± s, n=5

CCC(=O)O[C@H]1CC[C@H]2[C@@H]3CCC4=CC(=O)CC[C@]4(C)[C@H]3CC[C@]12C [Positive 2, testosterone propionate]
Histopathology of harderian gland and meibomian gland compared with the model group [1]: marked ameliorating | Corneal staining score, Day 28 after drug withdrawal [2, 5]: 3.0 ± 1.22 | Corneal staining score, Day 7 of administration ([2]; topical to the eyes): 2.8 ± 0.22 | Corneal staining score, Day 14 of administration ([2]; topical to the eyes): 2.2 ± 0.57*^Δ▴ | Weight of rabbits, Day 7 after drug withdrawal [3, 5]: 3.0 ± 1.21 kg | Weight of rabbits, Day 14 after drug withdrawal [3, 5]: 3.3 ± 1.31 kg | Weight of rabbits, Day 21 after drug withdrawal [3, 5]: 3.6 ± 1.07 kg | Weight of rabbits, Day 28 after drug withdrawal [3, 5]: 4.0 ± 1.20 kg | Weight of rabbits, Day 7 of administration ([3]; topical to the eyes): 2.4 ± 1.10 kg | Weight of rabbits, Day 14 of administration ([3]; topical to the eyes): 2.6 ± 1.05 kg | Tear secretion, Day 28 after drug withdrawal ([4]; castrated male rabbits, topical to the eyes for 14 days, Schirmer I 5 min, x ± s, n=5): 12.2 ± 3.48 mm | Tear secretion, Day 7 of administration [4, 6]: 12.7 ± 2.84 mm | Tear secretion, Day 14 of administration [4, 6]: 14.8 ± 3.17*^Δ▴ mm | Tear secretion, effect in words ([4]; castrated rabbits, compared with the model group and the solvent group (P<0.05)): increased markedly
